Experimental data taken from article PMC9641054, “Antimicrobial activity of cationic antimicrobial peptides against stationary phase bacteria” (Frontiers in Microbiology, 2022).
Converted amounts (≈) assume the structure as drawn. No end group written: not given here.

Columns and labels:
Format in all cases: cell-based
Escherichia coli K12 [1] = assay: microbe, parasite or virus in culture; details: for MIC: Escherichia coli, K12, read-out: MIC E. coli K12
Procedure: (§1) The Escherichia coli K12 from Yale University Microbial Stock Center and Staphylococcus aureus SH1000 ([Horsburgh et al., 2002]) were used for all experiments. All cultures related to antimicrobial tests and experiments were carried out in Mueller-Hinton I broth (Sigma) devoid of cations. Both strains were routinely cultured in Lysogeny Broth (LB medium).
(§2) The minimal inhibitory concentration for each antimicrobial were determined according to CLSI recommendations by the microdilution method ([CLSI, 2018]) with minor modifications for antimicrobial peptides ([Giacometti et al., 2000]). For comparison, we kept these modifications also for antibiotics. Inoculum size that was adjusted to approximately 1 × 10^6 CFU/ml from a 2-h mid-exponential phase obtained by diluting 100 μl of overnight cultures in 10 ml of fresh medium in 50 ml Falcon tubes. The MIC was defined as the minimal antimicrobial concentration that inhibited growth, after 24 h of incubation in liquid MHB medium at 37°C. Polypropylene non-binding plates (96 wells, Th. Geyer, Germany) were used for all experiments.

[2] = test system: Staphylococcus aureus SH1000; assay: microbe, parasite or virus in culture; details: for MIC: Staphylococcus aureus, SH1000, read-out: MIC S. aureus SH1000
Procedure: as §1, §2

Escherichia coli K12 [3] = assay: Killing experiment at 10x MIC, fast-growing (exponential) versus stationary phase bacteria in spent medium; details: for Killing fold-change 4 h (median) / Killing fold-change 24 h: E. coli K12, exponentially growing versus stationary phase cultures, 10x MIC, ~2 × 10^6 CFU/ml, 37°C, five independent cultures; for Killing of stationary phase bacteria at 4 h (in words) / Killing of stationary phase bacteria at 24 h (in words): stationary phase in spent medium
Procedure: (§3) For exponentially growing bacteria, five independent cultures per treatment were diluted 1:100 from a 16-h overnight culture (by adding 100 μl to 10 ml of MHB medium in 50 ml Falcon tubes). Then, the bacteria were grown for 2 h for E. coli and 2.5 h for S. aureus, to reach approximately 2 × 10^8 CFU/ml. The cultures were then diluted 1/100 in fresh medium to reach approximately 2 × 10^6 CFU/ml. […] Volumes of 100 μl-sample were extracted at 4 and 24 h. The aliquots were diluted and plated to determine cell viability. Non-treated cells were used as a control. All incubations took place at 37°C with shaking.
(§4) In order to maintain bacteria in their non-dividing state, we generated a medium to carry out the killing assays. From the supernatant of 500 ml of 48-h culture from each bacterium, the cells were pelleted at 4000 ×g for 30 min. The pH of each culture was adjusted to match the original pH of 7.2. To remove additional cell debris, flagella rest and outer membrane vesicles that could potentially interfere with the activity of AMPs ([Manning and Kuehn, 2011]), the supernatants were ultracentrifuged at 100000 ×g during 16 h at + 4°C. Thereafter, 250 ml of the supernatant from each flask was carefully recovered, without perturbing the pellet, and aseptically filtrated using 0.22 μm syringe filters and 40 ml were transferred to sterile 50 ml-falcon tubes, that were stored at −20°C until use. We refer to this medium as spent medium.
(§5) For stationary phase bacteria, five independent cultures per treatment were used. Bacteria from 48-h cultures containing approximately 3 × 10^9 CFU/ml for E. coli and 2 × 10^9 CFU/ml for S. aureus were diluted in spent medium (see preparation above) to a final cell density of 2×10^6 CFU/ml. Then, the bacteria were treated identically to the fast-growing bacteria killing experiment described above.
(§6) Statistical testing and plots were done in R version 3.3.2 ([R Core Team, 2017]), using Rstudio version 1.0.143 ([R Development Core Team, 2015]). To compare killing rates between bacteria growing in exponential and stationary phase for each antimicrobial after 4 and 24 h of exposure, a Welch’s t-test was used. Values below the detection limit (zero colony counts) were imputed for statistical purposes assigning a value of 1.

[4] = test system: Staphylococcus aureus SH1000; assay: as above; details: for Killing fold-change 4 h (median) / Killing fold-change 24 h: S. aureus SH1000, exponentially growing versus stationary phase cultures, 10x MIC, ~2 × 10^6 CFU/ml, 37°C, five independent cultures; for Killing of stationary phase bacteria at 4 h (in words) / Killing of stationary phase bacteria at 24 h (in words): stationary phase in spent medium
Procedure: as §3, §4, §5, §6

[5] = microdilution, inoculum ~1 × 10^6 CFU/ml mid-exponential phase, MHB devoid of cations, 24 h, 37°C, polypropylene non-binding plates

CC1(C)S[C@@H]2[C@H](NC(=O)[C@H](N)c3ccccc3)C(=O)N2[C@H]1C(=O)O [Ampicillin]
MIC (Escherichia coli K12 [1]; [5]): 2 µg/mL (≈ 5.72 µM) | MIC [2, 5]: 4 µg/mL (≈ 11.4 µM) | Killing fold-change 4 h (median) (Escherichia coli K12 [3]): 595.18 | Killing fold-change 24 h (Escherichia coli K12 [3]): 4,150,000 | Killing of stationary phase bacteria at 4 h (in words) (Escherichia coli K12 [3]; E. coli, 10 × MIC): did not kill | Killing of stationary phase bacteria at 24 h (in words) (Escherichia coli K12 [3]; E. coli, 10 × MIC): poor killing capacity | Killing fold-change 4 h (median) [4]: 13087.25 | Killing fold-change 24 h [4]: 4,470,000 | Killing of stationary phase bacteria at 4 h (in words) ([4]; S. aureus, 10 × MIC): did not kill | Killing of stationary phase bacteria at 24 h (in words) ([4]; S. aureus, 10 × MIC): poor killing capacity

O=C(O)c1cn(C2CC2)c2cc(N3CCNCC3)c(F)cc2c1=O [Ciprofloxacin]
Killing of stationary phase bacteria at 24 h (in words) (Escherichia coli K12 [3]; E. coli, 10 × MIC): reduced microbial count for both models with a significantly lower efficacy than killing fast-replicating cultures | Killing of stationary phase bacteria at 24 h (in words) ([4]; S. aureus, 10 × MIC): reduced microbial count for both models with a significantly lower efficacy than killing fast-replicating cultures

CNC(C)C1CCC(N)C(OC2C(N)CC(N)C(OC3OCC(C)(O)C(NC)C3O)C2O)O1 (centres unmarked) [Gentamicin]
MIC (Escherichia coli K12 [1]; [5]): 1 µg/mL (≈ 2.09 µM) | MIC [2, 5]: 4 µg/mL (≈ 8.38 µM) | Killing fold-change 4 h (median) (Escherichia coli K12 [3]): 10380.62 | Killing fold-change 24 h (Escherichia coli K12 [3]): 317,000 | Killing of stationary phase bacteria at 24 h (in words) (Escherichia coli K12 [3]; E. coli, 10 × MIC): reduced microbial count for both models with a significantly lower efficacy than killing fast-replicating cultures | Killing fold-change 4 h (median) [4]: 8508.47 | Killing fold-change 24 h [4]: 2,890,000 | Killing of stationary phase bacteria at 24 h (in words) ([4]; S. aureus, 10 × MIC): reduced microbial count for both models with a significantly lower efficacy than killing fast-replicating cultures

CC[C@H](C)[C@H](N)C(=O)N[C@@H](CC(C)C)C(=O)N1CCC[C@H]1C(=O)N[C@@H](Cc1c[nH]c2ccccc12)C(=O)N[C@@H](CCCCN)C(=O)N[C@@H](Cc1c[nH]c2ccccc12)C(=O)N1CCC[C@H]1C(=O)N[C@@H](Cc1c[nH]c2ccccc12)C(=O)N[C@@H](Cc1c[nH]c2ccccc12)C(=O)N1CCC[C@H]1C(=O)N[C@@H](Cc1c[nH]c2ccccc12)C(=O)N[C@@H](CCCNC(=N)N)C(=O)N[C@@H](CCCNC(=N)N)C(N)=O [Indolicidin]
MIC E. coli K12 (Escherichia coli K12 [1]; [5]): 16 µg/mL (≈ 8.39 µM) | MIC S. aureus SH1000 [2, 5]: 8 µg/mL (≈ 4.2 µM) | Killing fold-change 24 h (Escherichia coli K12 [3]): 1 | Killing of bacterial cultures (in words) (Escherichia coli K12 [3]; E. coli, 10 × MIC, fast and slow-replicating bacteria, both time-points 4 and 24 h): completely killing | Killing fold-change 24 h [4]: 1 | Killing of bacterial cultures (in words) ([4]; S. aureus, 10 × MIC, fast and slow-replicating bacteria, both time-points 4 and 24 h): completely killing

CC[C@H](C)[C@H](NC(=O)[C@H](CCCCN)NC(=O)[C@H](CCC(=O)O)NC(=O)[C@H](CCCCN)NC(=O)[C@H](CO)NC(=O)[C@H](CCCCN)NC(=O)[C@H](CCCNC(=N)N)NC(=O)[C@H](Cc1ccccc1)NC(=O)[C@H](Cc1ccccc1)NC(=O)[C@H](CC(=O)O)NC(=O)CNC(=O)[C@H](CC(C)C)NC(=O)[C@@H](N)CC(C)C)C(=O)NCC(=O)N[C@@H](CCCCN)C(=O)N[C@@H](CCC(=O)O)C(=O)N[C@@H](Cc1ccccc1)C(=O)N[C@@H](CCCCN)C(=O)N[C@@H](CCCNC(=N)N)C(=O)N[C@H](C(=O)N[C@H](C(=O)N[C@@H](CCC(N)=O)C(=O)N[C@@H](CCCNC(=N)N)C(=O)N[C@H](C(=O)N[C@@H](CCCCN)C(=O)N[C@@H](CC(=O)O)C(=O)N[C@@H](Cc1ccccc1)C(=O)N[C@@H](CC(C)C)C(=O)N[C@@H](CCCNC(=N)N)C(=O)N[C@@H](CC(N)=O)C(=O)N[C@@H](CC(C)C)C(=O)N[C@H](C(=O)N1CCC[C@H]1C(=O)N[C@@H](CCCNC(=N)N)C(=O)N[C@H](C(=O)N[C@@H](CCC(=O)O)C(=O)N[C@@H](CO)C(=O)O)[C@@H](C)O)C(C)C)[C@@H](C)CC)C(C)C)[C@@H](C)CC [LL-37]
MIC E. coli K12 (Escherichia coli K12 [1]; [5]): 4 µg/mL (≈ 0.89 µM) | MIC S. aureus SH1000 [2, 5]: 8 µg/mL (≈ 1.78 µM) | Killing fold-change 4 h (median) (Escherichia coli K12 [3]): 3.71 | Killing fold-change 24 h (Escherichia coli K12 [3]): 1 | Killing of stationary phase bacteria at 4 h (in words) (Escherichia coli K12 [3]; E. coli, 10 × MIC): some delay in killing | Killing fold-change 4 h (median) [4]: 0.66 | Killing fold-change 24 h [4]: 1 | Killing of stationary phase bacteria at 4 h (in words) ([4]; S. aureus, 10 × MIC): some delay in killing

CC[C@H](C)[C@H](NC(=O)CN)C(=O)NCC(=O)N[C@@H](C)C(=O)N[C@H](C(=O)N[C@@H](CC(C)C)C(=O)N[C@@H](CCCCN)C(=O)N[C@H](C(=O)N[C@@H](CC(C)C)C(=O)N[C@H](C(=O)N[C@H](C(=O)NCC(=O)N[C@@H](CC(C)C)C(=O)N1CCC[C@H]1C(=O)N[C@@H](C)C(=O)N[C@@H](CC(C)C)C(=O)N[C@H](C(=O)N[C@@H](CO)C(=O)N[C@@H](Cc1c[nH]c2ccccc12)C(=O)N[C@H](C(=O)N[C@@H](CCCCN)C(=O)N[C@@H](CCCNC(=N)N)C(=O)N[C@@H](CCCCN)C(=O)N[C@@H](CCCNC(=N)N)C(=O)N[C@@H](CCC(N)=O)C(=O)N[C@@H](CCC(N)=O)C(N)=O)[C@@H](C)CC)[C@@H](C)CC)[C@@H](C)O)[C@@H](C)O)C(C)C)C(C)C [Melittin]
MIC E. coli K12 (Escherichia coli K12 [1]; [5]): 2 µg/mL (≈ 0.703 µM) | MIC S. aureus SH1000 [2, 5]: 2 µg/mL (≈ 0.703 µM) | Killing of stationary phase bacteria at 4 h (in words) (Escherichia coli K12 [3]; E. coli, 10 × MIC): some delay in killing | Killing fold-change 24 h [4]: 17 | Killing of stationary phase bacteria at 4 h (in words) ([4]; S. aureus, 10 × MIC): some delay in killing

GIGKFLKKAKKFGKAFVKILKK-NH2 (C-terminus assumed) [Pexiganan]
MIC E. coli K12 (Escherichia coli K12 [1]; K12, 24 h): 4 µg/mL | MIC S. aureus SH1000 ([2]; SH1000, 24 h): 8 µg/mL | Killing fold-change 4 h (median) (Escherichia coli K12 [3]): 2.53 | Killing fold-change 24 h (Escherichia coli K12 [3]): 1 | Killing of stationary phase bacteria at 4 h (in words) (Escherichia coli K12 [3]; E. coli, 10 × MIC): some delay in killing | Killing fold-change 4 h (median) [4]: 1.14 | Killing fold-change 24 h [4]: 1 | Killing of stationary phase bacteria at 4 h (in words) ([4]; S. aureus, 10 × MIC): some delay in killing

KWKLFKKIEKVGQNIRDGIIKAGPAVAVVGQATQIAK-NH2 (C-terminus assumed) [Cecropin A]
Killing fold-change 4 h (median) (Escherichia coli K12 [3]): 1.21 | Killing fold-change 24 h (Escherichia coli K12 [3]): 27 | Killing of stationary phase bacteria at 4 h (in words) (Escherichia coli K12 [3]; E. coli, 10 × MIC): some delay in killing | Killing fold-change 4 h (median) [4]: 1.30 | Killing fold-change 24 h [4]: 0.22 | Killing of stationary phase bacteria at 4 h (in words) ([4]; S. aureus, 10 × MIC): some delay in killing
